Patent US20030055023A1, “Formulations containing etomidate and a sulfoalkyl ether cyclodextrin” (priority 2001, published 2003)
Values after ≈ are worked out from the molar mass of the structure shown.

Test: Solubility of etomidate
Type: physicochemical
Conditions: aqueous buffer
Excerpt: . […] . No. 4,289,783 to Mesens).
By “therapeutic agent/SAE-CD complex” is generally meant a clathrate or inclusion complex of a sulfoalkyl ether cyclodextrin derivative of the formula (1) and a therapeutic agent. By “complexed” is meant “being part of a clathrate or inclusion complex with”, i.e., a complexed therapeutic agent is part of a clathrate or inclusion complex with a sulfoalkyl ether cyclodextrin derivative. By “major portion” is meant at least about 50% by weight of the therapeutic compound. Thus, a formulation according to the present invention will contain a therapeutic agent of which more than about 50% by weight is complexed with an SAE-CD. In various embodiments, preferably greater than 60% by weight, more preferably greater than 75% by weight, even more preferably greater than 90% by weight, and most preferably greater than 95% by weight of the therapeutic agent will remain complexed with an SAE-CD while in the pharmaceutical formulation. The actual percent of drug that is complexed will vary according to the complexation equilibrium constant characterizing the complexation of a specific SAE- CD to a specific drug. […] . In this case the amount complexed is only 75%. Generally, the greater the percentage of drug that is complexed, the more effectively the SAE-CD will reduce pain on injection. […]

Structure (SMILES): CCOC(=O)c1cncn1[C@H](C)c1ccccc1 [Etomidate, (R)-(+)ethyl 1-(1-phenylethyl)-1H-imidazole-5-carboxylate]
- solubility (0.025 M phosphate buffer at pH 7.0): ~450 µg/mL (≈ 1840 µM)
- solubility (25mM phosphate buffer, pH 7.4): 450 µg/mL (≈ 1840 µM)
